Measured values: paper PMC11654702, “Mechanisms underlying modulation of human GlyRα3 by Zn^2+ and pH” (Science Advances, 2024)

T1: GlyRα3 (Homo sapiens, UniProt O75311)
T1 construct: gene GLRA3; full-length, C-terminal thrombin site and 8x histidine tag, homopentamer in peptidisc (cryo-EM); full-length in Xenopus oocytes (TEVC)
T1 sequence (O75311 34-464): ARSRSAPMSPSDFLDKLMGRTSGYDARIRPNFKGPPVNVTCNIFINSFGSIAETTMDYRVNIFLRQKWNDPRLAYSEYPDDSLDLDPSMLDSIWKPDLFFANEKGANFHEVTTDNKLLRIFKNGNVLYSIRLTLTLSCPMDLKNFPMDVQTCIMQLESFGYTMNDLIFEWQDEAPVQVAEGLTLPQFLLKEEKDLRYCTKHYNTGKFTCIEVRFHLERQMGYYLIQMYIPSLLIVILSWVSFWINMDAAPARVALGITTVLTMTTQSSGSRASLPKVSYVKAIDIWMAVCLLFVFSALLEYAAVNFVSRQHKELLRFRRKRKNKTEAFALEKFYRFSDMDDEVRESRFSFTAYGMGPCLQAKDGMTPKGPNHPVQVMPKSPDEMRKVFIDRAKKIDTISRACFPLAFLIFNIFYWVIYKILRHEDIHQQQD


What was measured:
GlyRα3 = molecular target: T1, GlyRα3; assay: cryo-EM structures with glycine density; EC50 by two-electrode voltage clamp in Xenopus oocytes; type: cell-based
[1] = molecular target: the molecule itself; assay: cryo-EM structure; GlyRα3 in peptidisc, 0.3 to 1 mg/ml, 20 mM Hepes, 150 mM NaCl, pH 8.0 or pH 6.4; 0.1 or 1 mM glycine, without or with 1 or 100 μM ZnCl2; final maps refined with C5 symmetry

Molecule	EC50 (GlyRα3) [µM]	stoichiometry N [1]
NCC(=O)O [glycine]	213 ± 13	–
full-length human GlyRα3 (receptor, UniProt O75311 34-464, looked up, Glycine receptor subunit alpha-3, human, UniProt O75311, full-length codon-optimized GLRA3 gene; last residue printed as Asp431 on mature numbering; ICD Lys312-Arg385 not modelled in the maps; Homopentamer reconstituted in peptidisc (NSP peptide scaffold); the models are numbered without it; also called hGlyRα3; glycine receptor α3; source: Sf9 cells (baculovirus, pFastBac1), purified (DDM …)) ARSRSAPMSPSDFLDKLMGRTSGYDARIRPNFKGPPVNVTCNIFINSFGSIAETTMDYRVNIFLRQKWNDPRLAYSEYPDDSLDLDPSMLDSIWKPDLFFANEKGANFHEVTTDNKLLRIFKNGNVLYSIRLTLTLSCPMDLKNFPMDVQTCIMQLESFGYTMNDLIFEWQDEAPVQVAEGLTLPQFLLKEEKDLRYCTKHYNTGKFTCIEVRFHLERQMGYYLIQMYIPSLLIVILSWVSFWINMDAAPARVALGITTVLTMTTQSSGSRASLPKVSYVKAIDIWMAVCLLFVFSALLEYAAVNFVSRQHKELLRFRRKRKNKTEAFALEKFYRFSDMDDEVRESRFSFTAYGMGPCLQAKDGMTPKGPNHPVQVMPKSPDEMRKVFIDRAKKIDTISRACFPLAFLIFNIFYWVIYKILRHEDIHQQQD	–	5
